Source: PubChem BioAssay AID1963874 (Molecular Pharmacology Branch, DTP, NCI, 2024)

Test system: 253994-281-T-J1-PDC KRAS-mutant spheroids with HUVEC/MSC, viability
Experiment: Anticancer human tumor 253994-281-T-J1-PDC patient-derived colorectal carcinoma cell line growth inhibition [KRAS2]
Conditions: for viability, T/C: stronger effect = lower value
Procedure, shortened: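 KRAS-mutant tumor cells were grown as spheroids with HUVEC endothelial cells and human MSCs as stroma. Targeted agents were tested alone and with KRAS pathway inhibitors. Doses started at or near clinical Cmax, or 10 microM, descending half-log.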

[1] = curve of first compound, second compound 0.0316 µM
[2] = curve of first compound, second compound 0.1 µM
[3] = curve of first compound, second compound 0.316 µM
[4] = curve of first compound, second compound 1 µM
[5] = curve of first compound, second compound 3.16 µM
[6] = second compound 0.0316 µM, first compound 0.0316 µM
[7] = second compound 0.0316 µM, first compound 0.1 µM
[8] = second compound 0.1 µM, first compound 0.0316 µM
[9] = second compound 0.1 µM, first compound 0.1 µM
[10] = second compound 0.316 µM, first compound 0.0316 µM
[11] = second compound 0.316 µM, first compound 0.1 µM
[12] = second compound 1 µM, first compound 0.0316 µM
[13] = second compound 1 µM, first compound 0.1 µM
[14] = second compound 3.16 µM, first compound 0.0316 µM
[15] = second compound 3.16 µM, first compound 0.1 µM
[16] = second compound 0.0316 µM, first compound 0.316 µM
[17] = second compound 0.0316 µM, first compound 1 µM
[18] = second compound 0.0316 µM, first compound 3.16 µM
[19] = second compound 0.0316 µM, first compound 10 µM
[20] = second compound 0.1 µM, first compound 0.316 µM
[21] = second compound 0.1 µM, first compound 1 µM
[22] = second compound 0.1 µM, first compound 3.16 µM
[23] = second compound 0.1 µM, first compound 10 µM
[24] = second compound 0.316 µM, first compound 0.316 µM
[25] = second compound 0.316 µM, first compound 1 µM
[26] = second compound 0.316 µM, first compound 3.16 µM
[27] = second compound 0.316 µM, first compound 10 µM
[28] = second compound 1 µM, first compound 0.316 µM
[29] = second compound 1 µM, first compound 1 µM
[30] = second compound 1 µM, first compound 3.16 µM
[31] = second compound 1 µM, first compound 10 µM
[32] = second compound 3.16 µM, first compound 0.316 µM
[33] = second compound 3.16 µM, first compound 1 µM
[34] = second compound 3.16 µM, first compound 3.16 µM
[35] = second compound 3.16 µM, first compound 10 µM
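Further: spheroids exposed to agents for seven days before readout.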
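Wherever viability, T/C is given: percent of DMSO vehicle control viability.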

Compound: CC(C)n1nc(-c2ccc3oc(N)nc3c2)c2c(N)ncnc21 + C=CC(=O)N1CCN(c2nc(OCC3CCCN3C)nc3c2CCN(c2cccc4cccc(C)c24)C3)CC1CC#N
- IC50 [1]: > 0.1 µM
- IC50 [2]: > 0.1 µM
- IC50 [3]: > 0.1 µM
- IC50 [4]: > 0.1 µM
- IC50 [5]: 0.000686 µM
- viability, T/C (second compound 0.0316 µM, first compound 0.000316 µM): 97.5%
- viability, T/C (second compound 0.0316 µM, first compound 0.001 µM): 90.1%
- viability, T/C (second compound 0.0316 µM, first compound 0.00316 µM): 80.2%
- viability, T/C (second compound 0.0316 µM, first compound 0.01 µM): 82.7%
- viability, T/C [6]: 84%
- viability, T/C [7]: 54.7%
- viability, T/C (second compound 0.1 µM, first compound 0.000316 µM): 95.6%
- viability, T/C (second compound 0.1 µM, first compound 0.001 µM): 88.8%
- viability, T/C (second compound 0.1 µM, first compound 0.00316 µM): 89.1%
- viability, T/C (second compound 0.1 µM, first compound 0.01 µM): 86.8%
- viability, T/C [8]: 85.8%
- viability, T/C [9]: 58.4%
- viability, T/C (second compound 0.316 µM, first compound 0.000316 µM): 95.4%
- viability, T/C (second compound 0.316 µM, first compound 0.001 µM): 96.7%
- viability, T/C (second compound 0.316 µM, first compound 0.00316 µM): 85.2%
- viability, T/C (second compound 0.316 µM, first compound 0.01 µM): 81.6%
- viability, T/C [10]: 68.7%
- viability, T/C [11]: 55%
- viability, T/C (second compound 1 µM, first compound 0.000316 µM): 106%
- viability, T/C (second compound 1 µM, first compound 0.001 µM): 89.9%
- viability, T/C (second compound 1 µM, first compound 0.00316 µM): 79.1%
- viability, T/C (second compound 1 µM, first compound 0.01 µM): 77.4%
- viability, T/C [12]: 68.5%
- viability, T/C [13]: 54%
- viability, T/C (second compound 3.16 µM, first compound 0.000316 µM): 73.4%
- viability, T/C (second compound 3.16 µM, first compound 0.001 µM): 25.1%
- viability, T/C (second compound 3.16 µM, first compound 0.00316 µM): 56.7%
- viability, T/C (second compound 3.16 µM, first compound 0.01 µM): 17%
- viability, T/C [14]: 62.4%
- viability, T/C [15]: 31.6%

Compound: O=C(c1cc(Cc2n[nH]c(=O)c3ccccc23)ccc1F)N1CCN(C(=O)C2CC2)CC1 + C=CC(=O)N1CCN(c2nc(OCC3CCCN3C)nc3c2CCN(c2cccc4cccc(C)c24)C3)CC1CC#N
- IC50 [1]: > 10 µM
- IC50 [2]: > 10 µM
- IC50 [3]: > 10 µM
- IC50 [4]: > 10 µM
- IC50 [5]: < 0.0316 µM
- viability, T/C [6]: 108%
- viability, T/C [7]: 100%
- viability, T/C [16]: 95.8%
- viability, T/C [17]: 90.5%
- viability, T/C [18]: 90.5%
- viability, T/C [19]: 82.8%
- viability, T/C [8]: 83.1%
- viability, T/C [9]: 101%
- viability, T/C [20]: 94.1%
- viability, T/C [21]: 87.1%
- viability, T/C [22]: 82.1%
- viability, T/C [23]: 85.2%
- viability, T/C [10]: 80.3%
- viability, T/C [11]: 81%
- viability, T/C [24]: 83.8%
- viability, T/C [25]: 73%
- viability, T/C [26]: 79.6%
- viability, T/C [27]: 89.6%
- viability, T/C [12]: 87.4%
- viability, T/C [13]: 113%
- viability, T/C [28]: 88.2%
- viability, T/C [29]: 90.7%
- viability, T/C [30]: 81.4%
- viability, T/C [31]: 80.8%
- viability, T/C [14]: 32.7%
- viability, T/C [15]: 13%
- viability, T/C [32]: 15.7%
- viability, T/C [33]: 24.1%
- viability, T/C [34]: 21%
- viability, T/C [35]: 21.1%

Compound: CC(C)NCC(C(=O)N1CCN(c2ncnc3c2C(C)CC3O)CC1)c1ccc(Cl)cc1 (centres undefined) + COc1cc2nc(C)nc(NC(C)c3cc(N)cc(C(F)(F)F)c3)c2cc1OC1CCOC1
- IC50 [2]: > 10 µM
- IC50 [3]: > 10 µM
- IC50 [4]: > 10 µM
- IC50 [5]: > 10 µM
- IC50 (curve of first compound, second compound 10 µM): > 10 µM
- viability, T/C [8]: 86.1%
- viability, T/C [9]: 97.9%
- viability, T/C [20]: 92.5%
- viability, T/C [21]: 94.6%
- viability, T/C [22]: 93%
- viability, T/C [23]: 97.1%
- viability, T/C [10]: 86.3%
- viability, T/C [11]: 85.7%
- viability, T/C [24]: 78.7%
- viability, T/C [25]: 87.6%
- viability, T/C [26]: 82%
- viability, T/C [27]: 90.2%
- viability, T/C [12]: 84.3%
- viability, T/C [13]: 83.4%
- viability, T/C [28]: 94.1%
- viability, T/C [29]: 86.2%
- viability, T/C [30]: 92.4%
- viability, T/C [31]: 96.4%
- viability, T/C [14]: 83.2%
- viability, T/C [15]: 87.4%
- viability, T/C [32]: 85.9%
- viability, T/C [33]: 94.2%
- viability, T/C [34]: 92.3%
- viability, T/C [35]: 74.7%
- viability, T/C (second compound 10 µM, first compound 0.0316 µM): 67.9%
- viability, T/C (second compound 10 µM, first compound 0.1 µM): 79.8%
- viability, T/C (second compound 10 µM, first compound 0.316 µM): 85.5%
- viability, T/C (second compound 10 µM, first compound 1 µM): 79.5%
- viability, T/C (second compound 10 µM, first compound 3.16 µM): 71.2%
- viability, T/C (second compound 10 µM, first compound 10 µM): 83.7%

Compound: CC1COCCN1c1cc(-c2ccnn2C)c2ccnc(-c3ccn[nH]3)c2n1 (centres undefined)
- viability, T/C (compound 0.01 µM): 97.3% [middle of 5 runs]
- viability, T/C (compound 0.0316 µM): 88.2% [middle of 5 runs]
- viability, T/C (compound 0.1 µM): 74.6% [middle of 5 runs]
- viability, T/C (compound 0.316 µM): 61.8% [middle of 5 runs]
- viability, T/C (compound 1 µM): 56.9% [middle of 5 runs]
- viability, T/C (compound 3.16 µM): 59.6% [middle of 5 runs]
- IC50 (curve of compound): > 3.16 µM

Compound: COc1cc2nccc(Oc3ccc(NC(=O)C4(C(=O)Nc5ccc(F)cc5)CC4)cc3)c2cc1OC
- viability, T/C (compound 0.0316 µM): 99.7% [middle of 5 runs]
- viability, T/C (compound 0.1 µM): 108% [middle of 5 runs]
- viability, T/C (compound 0.316 µM): 92.9% [middle of 5 runs]
- viability, T/C (compound 1 µM): 93.9% [middle of 5 runs]
- viability, T/C (compound 3.16 µM): 89.8% [middle of 5 runs]
- viability, T/C (compound 10 µM): 76.9% [middle of 5 runs]
- IC50 (curve of compound): > 10 µM

Compound: COc1cc(Nc2ncc3c(n2)-c2ccc(Cl)cc2C(c2c(F)cccc2OC)=NC3)ccc1C(=O)O + C=CC(=O)N1CCN(c2nc(OCC3CCCN3C)nc3c2CCN(c2cccc4cccc(C)c24)C3)CC1CC#N
- IC50 [1]: 0.0898 µM
- IC50 [2]: > 10 µM
- IC50 [3]: < 0.0316 µM
- IC50 [4]: > 10 µM
- IC50 [5]: < 0.0316 µM
- viability, T/C [6]: 74.5%
- viability, T/C [7]: 42.8%
- viability, T/C [16]: 39%
- viability, T/C [17]: 48.5%
- viability, T/C [18]: 50%
- viability, T/C [19]: 57%
- viability, T/C [8]: 76.6%
- viability, T/C [9]: 36.6%
- viability, T/C [20]: 38.9%
- viability, T/C [21]: 40.7%
- viability, T/C [22]: 54.2%
- viability, T/C [23]: 64.4%
- viability, T/C [10]: 60.9%
- viability, T/C [11]: 35.9%
- viability, T/C [24]: 32.6%
- viability, T/C [25]: 45.9%
- viability, T/C [26]: 50.4%
- viability, T/C [27]: 55.1%
- viability, T/C [12]: 70.1%
- viability, T/C [13]: 39.5%
- viability, T/C [28]: 36%
- viability, T/C [29]: 40.3%
- viability, T/C [30]: 60.6%
- viability, T/C [31]: 58.4%
- viability, T/C [14]: 17.1%
- viability, T/C [15]: 8.06%
- viability, T/C [32]: 5.83%
- viability, T/C [33]: 20.6%
- viability, T/C [34]: 25.9%
- viability, T/C [35]: 25.9%
